Experimental data as given in ChEMBL document CHEMBL1142020, “2-substituted-4-aryl-6,7,8,9-tetrahydro-5H-pyrimido[4,5-b][1,5]oxazocin-5-one as a structurally new NK1 antagonist” (2005).

Key:
[1] = Effective bladder capacity increasing effect of compound (0.3 mg/kg i.v.) expressed as the ratio of increase in effective bladder capacity compared to saline treated animals in vivo; type: functional, Cavia porcellus
[2] = biological target: Substance-P receptor (Cavia porcellus) (UniProt P30547); experiment: Antagonist activity against tachykinin receptor 1 activity in guinea pig ileum in vitro; type: functional, tissue-based
Substance-P receptor (Cavia porcellus), sequence (P30547 whole entry): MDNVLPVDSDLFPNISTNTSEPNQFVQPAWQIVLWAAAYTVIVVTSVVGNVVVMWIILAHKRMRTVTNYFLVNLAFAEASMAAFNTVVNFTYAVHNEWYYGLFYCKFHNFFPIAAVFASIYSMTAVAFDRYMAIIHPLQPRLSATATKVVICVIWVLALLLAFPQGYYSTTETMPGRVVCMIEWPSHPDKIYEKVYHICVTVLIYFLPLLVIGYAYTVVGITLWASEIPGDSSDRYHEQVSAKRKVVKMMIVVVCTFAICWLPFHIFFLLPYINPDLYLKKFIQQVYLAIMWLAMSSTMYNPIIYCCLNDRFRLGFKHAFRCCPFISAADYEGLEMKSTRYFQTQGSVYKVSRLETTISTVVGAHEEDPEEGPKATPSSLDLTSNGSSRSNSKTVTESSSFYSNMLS

Compound	Effect [1]	Kb [2]
Cc1ccccc1-c1cc(N2CCC(N3CCCC3)CC2)nc2c1C(=O)N(Cc1cc(C(F)(F)F)cc(C(F)(F)F)c1)CCCO2	24.2%	
Cc1ccc(-c2c3n(c(=O)c4ncccc24)CC[C@@H](C)CN(Cc2cc(C(F)(F)F)cc(C(F)(F)F)c2)C3=O)cc1	12%	0.27 nM
Cc1ccccc1-c1nc(N2CCC(N3CCCC3)CC2)nc2c1C(=O)N(Cc1cc(C(F)(F)F)cc(C(F)(F)F)c1)CCCO2	33.4%	0.166 nM
Cc1ccccc1-c1nc(N2CCC(N3CCCC3)CC2)cc2c1C(=O)N(Cc1cc(C(F)(F)F)cc(C(F)(F)F)c1)CCCO2	3.97%	0.339 nM
